According to patent US20230159538A1, “PYRROLIDINE-PYRAZOLES AS PYRUVATE KINASE ACTIVATORS” (Global Blood Therapeutics, Inc., priority 2020, published 2023):

Target: T1, Human pyruvate kinase R (PKR) (Homo sapiens, UniProt P30613)
T1 construct: Human pyruvate kinase R (PKR), residues 14-574; 6x-His (N, cleaved yes); 8x-Arg (N, cleaved yes); SUMO (N, cleaved yes); host or cells: E. coli
Experiment: Biochemical assay for activation of pyruvate kinase R (Kinase-Glo luminescence, ATP generation)
Settings: for AC50: 0.1 nM PKR, 2 mM FBP, 0.3 mM ADP, 0.1 mM PEP; for PKR % activation: maximal activation level relative to the activation level achieved by AG-348 @ 10 μM
Method: Proteins were translated as fusions with 6×-His, 8×-Arg, and SUMO at the N-terminus. […] All proteins were cloned, expressed in E. coli, and purified using similar protocols. Cells were grown at 30° C. in Luria-Bertani broth supplemented with 0.4% glucose to OD600=0.8 and induced with 0.4 mM IPTG at 16° C. for 18 hours. Cells were harvested by centrifugation, resuspended in 50 mM potassium phosphate pH 8.0, 500 mM NaCl, 25 mM imidazole pH 8.0, and 3 mM β-mercaptoethanol. Cells were lysed using a LM20 microfluidizer from Microfluidics (Westwood, Mass.). The crude lysate was immediately supplemented with 0.2 mM phenylmethylsulfonyl fluoride (PMSF) and centrifuged at 20,000 g for 20 minutes. The soluble fraction was subsequently incubated with 2 mL Ni-NTA (GE Healthcare) per 1,000 ODs for 1 hour at 4° C. Following incubation with the Ni-NTA resin, lysate was removed by pelleting resin at 2,500 g for 3 minutes and washed 3 times with 9 bed volumes of 50 mM potassium phosphate pH 8.0, 500 mM NaCl, 25 mM imidazole, and 3 mM β-mercaptoethanol. Following the batch wash Ni-NTA resin was loaded onto a gravity column and His-tagged protein was eluted with 6 bed volumes of 10 mM Tris/HCl pH 8.0, 200 mM NaCl, 500 mM imidazole, and 3 mM β-mercaptoethanol. Eluted protein was dialyzed overnight against 10 mM Tris/HCl pH 8.0, 200 mM NaCl, and 1 mM DTT and the 6×-His-8×-Arg-SUMO-tag was cleaved using a 20:1 molar ratio of protein:3C protease. The protein was purified by anion exchange chromatography on a HiTrapQ or MonoQ 10/100 GL column (GE Healthcare) via a linear NaCl gradient and twice by size exclusion chromatography using a Superdex S200 26/60 column (GE Healthcare) run in 10 mM Tris/HCl pH 8.0, 200 mM NaCl, 10 mM MgCl2, 1 mM DTT. Proteins were concentrated to ˜12 mg/mL for crystallization and flash frozen for storage.
Biochemical Assay for Activation of Pyruvate Kinase R
Activation of pyruvate kinase R (PKR) and pyruvate kinase M2 (PKM2) were measured using a luminescence based measurement of ATP generation and the Kinase-Glo luminescent kinase reagent kit.

T1 sequence (P30613 14-574): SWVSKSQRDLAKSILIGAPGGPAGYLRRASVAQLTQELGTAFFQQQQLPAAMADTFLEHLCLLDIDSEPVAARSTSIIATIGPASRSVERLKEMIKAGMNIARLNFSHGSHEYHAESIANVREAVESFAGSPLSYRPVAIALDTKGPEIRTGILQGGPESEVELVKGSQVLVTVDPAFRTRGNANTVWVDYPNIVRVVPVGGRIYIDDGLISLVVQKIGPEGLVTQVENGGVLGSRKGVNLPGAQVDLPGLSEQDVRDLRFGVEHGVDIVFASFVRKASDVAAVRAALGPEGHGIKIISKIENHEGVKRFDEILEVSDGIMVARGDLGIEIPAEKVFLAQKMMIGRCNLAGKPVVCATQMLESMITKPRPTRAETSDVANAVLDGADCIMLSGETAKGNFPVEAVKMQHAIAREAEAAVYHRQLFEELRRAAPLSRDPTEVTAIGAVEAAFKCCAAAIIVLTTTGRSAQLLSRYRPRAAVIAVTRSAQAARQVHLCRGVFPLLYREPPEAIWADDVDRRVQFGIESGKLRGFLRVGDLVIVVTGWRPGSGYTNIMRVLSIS

AC50 | SMILES | PKR % activation
> 10000 nM | O=C([C@@H](c1ccccc1)N1CCOCC1)N1Cc2cn(S(=O)(=O)c3ccc(OC(F)F)cc3)nc2C1 (single isomer, unassigned) [Compound 108, (2R)-1-{2-[4-(difluoromethoxy)benzenesulfonyl]-2H,4H,5H,6H-pyrrolo[3,4-c]pyrazol-5-yl}-2-(morpholin-4-yl)-2-phenylethan-1-one or (2S)-1-{2-[4-(difluoromethoxy)benzenesulfonyl]-2H,4H,5H,6H-pyrrolo[3,4-c]pyrazol-5-yl}-2-(morpholin-4-yl)-2-phenylethan-1-one] | 0%
167 nM | NCC(C(=O)N1Cc2cn(S(=O)(=O)c3ccc4ncsc4c3)nc2C1)c1ccccc1 (stereo not shown) [Compound 13, 3-amino-1-[2-(1,3-benzothiazole-6-sulfonyl)-2H,4H,5H,6H-pyrrolo[3,4-c]pyrazol-5-yl]-2-phenylpropan-1-one] | 
13 nM | N[C@@H](C(=O)N1Cc2cn(S(=O)(=O)c3ccc4ncsc4c3)nc2C1)c1ccc(F)cc1 [Compound 28, (2R)-2-amino-1-[2-(1,3-benzothiazole-6-sulfonyl)-2H,4H,5H,6H-pyrrolo[3,4-c]pyrazol-5-yl]-2-(4-fluorophenyl)ethan-1-one] | 
210 nM | CC(C)(O)[C@@H](C(=O)N1Cc2cn(S(=O)(=O)c3ccc4occc4c3)nc2C1)c1ccccc1 [Compound 34, (2S)-1-[2-(1-benzofuran-5-sulfonyl)-2H,4H,5H,6H-pyrrolo[3,4-c]pyrazol-5-yl]-3-hydroxy-3-methyl-2-phenylbutan-1-one] | 
23 nM | N[C@@H](C(=O)N1Cc2cn(S(=O)(=O)c3ccc(OC(F)F)cc3)nc2C1)c1ccc(Cl)cc1 [Compound 51, (2R)-2-amino-2-(4-chlorophenyl)-1-{2-[4-(difluoromethoxy)benzenesulfonyl]-2H,4H,5H,6H-pyrrolo[3,4-c]pyrazol-5-yl}ethan-1-one] | 
13 nM | N[C@@H](C(=O)N1Cc2cn(S(=O)(=O)c3ccc4ncsc4c3)nc2C1)c1ccccc1Cl [Compound 52, (2R)-2-amino-1-[2-(1,3-benzothiazole-6-sulfonyl)-2H,4H,5H,6H-pyrrolo[3,4-c]pyrazol-5-yl]-2-(2-chlorophenyl)ethan-1-one] | 
36 nM | N[C@@H](C(=O)N1Cc2cn(S(=O)(=O)c3ccc4ncsc4c3)nc2C1)c1cccc(Cl)c1 [Compound 53, (2R)-2-amino-1-[2-(1,3-benzothiazole-6-sulfonyl)-2H,4H,5H,6H-pyrrolo[3,4-c]pyrazol-5-yl]-2-(3-chlorophenyl)ethan-1-one] | 
48 nM | Cc1ccccc1[C@@H](N)C(=O)N1Cc2cn(S(=O)(=O)c3ccc4ncsc4c3)nc2C1 [Compound 59, (2R)-2-amino-1-[2-(1,3-benzothiazole-6-sulfonyl)-2H,4H,5H,6H-pyrrolo[3,4-c]pyrazol-5-yl]-2-(2-methylphenyl)ethan-1-one] | 
3.4 nM | N[C@@H](C(=O)N1Cc2cn(S(=O)(=O)c3ccc4occc4c3)nc2C1)c1ccccc1F [Compound 64, (2R)-2-amino-1-[2-(1-benzofuran-5-sulfonyl)-2H,4H,5H,6H-pyrrolo[3,4-c]pyrazol-5-yl]-2-(2-fluorophenyl)ethan-1-one] | 

Continued, compound first:

SMILES | AC50 | PKR % activation
C[C@@H](O)[C@H](C(=O)N1Cc2cn(S(=O)(=O)c3ccc4ncsc4c3)nc2C1)c1ccccc1 [Compound 4] | 1810 nM | 100%
C[C@@H](O)[C@H](C(=O)N1Cc2cn(S(=O)(=O)c3ccc4ncsc4c3)nc2C1)c1ccccc1 [Compound 6] | 2530 nM | 150%
C[C@@H](O)[C@H](C(=O)N1Cc2cn(S(=O)(=O)c3ccc(OC(F)F)cc3)nc2C1)c1ccccc1 [Compound 9] | 147 nM | 131%
C[C@@H](O)[C@H](C(=O)N1Cc2cn(S(=O)(=O)c3ccc(OC(F)F)cc3)nc2C1)c1ccccc1 [Compound 10] | 455 nM | 165%
C[C@@H](O)[C@H](C(=O)N1Cc2cn(S(=O)(=O)c3ccc(OC(F)F)cc3)nc2C1)c1ccccc1 [Compound 11] | 7270 nM | 164%
N[C@@H](C(=O)N1Cc2cn(S(=O)(=O)c3ccc4c(c3)NCCO4)nc2C1)c1ccccc1 [Compound 16, (2R)-2-amino-1-[2-(3,4-dihydro-2H-1,4-benzoxazine-6-sulfonyl)-2H,4H,5H,6H-pyrrolo[3,4-c]pyrazol-5-yl]-2-phenylethan-1-one] | 156 nM | 
O=C(N1Cc2cn(S(=O)(=O)c3ccc4ncsc4c3)nc2C1)C1(c2ccccc2)CCOC1 (stereo not shown) [Compound 18, 6-{[5-(3-phenyloxolane-3-carbonyl)-2H,4H,5H,6H-pyrrolo[3,4-c]pyrazol-2-yl]sulfonyl}-1,3-benzothiazole] | 83 nM | 
O=C(N1Cc2cn(S(=O)(=O)c3ccc4ncsc4c3)nc2C1)C1(c2ccccc2)COCCN1 (stereo not shown) [Compound 21, 6-{[5-(3-phenylmorpholine-3-carbonyl)-2H,4H,5H,6H-pyrrolo[3,4-c]pyrazol-2-yl]sulfonyl}-1,3-benzothiazole] | 209 nM | 
N[C@@H](C(=O)N1Cc2cn(S(=O)(=O)c3ccc(OC(F)F)cc3)nc2C1)c1cccc(OC(F)(F)F)c1 [Compound 30, (2R)-2-amino-1-{2-[4-(difluoromethoxy)benzenesulfonyl]-2H,4H,5H,6H-pyrrolo[3,4-c]pyrazol-5-yl}-2-[3-(trifluoromethoxy)phenyl]ethan-1-one] | 371 nM | 
CC(C)(O)[C@H](C(=O)N1Cc2cn(S(=O)(=O)c3ccc4occc4c3)nc2C1)c1ccccc1 [Compound 33, (2R)-1-[2-(1-benzofuran-5-sulfonyl)-2H,4H,5H,6H-pyrrolo[3,4-c]pyrazol-5-yl]-3-hydroxy-3-methyl-2-phenylbutan-1-one] | 130 nM | 
N[C@H](C(=O)N1Cc2cn(S(=O)(=O)c3ccc4ncsc4c3)nc2C1)c1ccccc1F [Compound 38, (2S)-2-amino-1-[2-(1,3-benzothiazole-6-sulfonyl)-2H,4H,5H,6H-pyrrolo[3,4-c]pyrazol-5-yl]-2-(2-fluorophenyl)ethan-1-one] | 270 nM | 
N[C@@H](C(=O)N1Cc2cn(S(=O)(=O)c3ccc(OC(F)F)cc3)nc2C1)c1ccc(F)cc1 [Compound 49, (2R)-2-amino-1-{2-[4-(difluoromethoxy)benzenesulfonyl]-2H,4H,5H,6H-pyrrolo[3,4-c]pyrazol-5-yl}-2-(4-fluorophenyl)ethan-1-one] | 17 nM | 
N[C@@H](C(=O)N1Cc2cn(S(=O)(=O)c3ccc(OC(F)F)cc3)nc2C1)c1cccc(Cl)c1 [Compound 50, (2R)-2-amino-2-(3-chlorophenyl)-1-{2-[4-(difluoromethoxy)benzenesulfonyl]-2H,4H,5H,6H-pyrrolo[3,4-c]pyrazol-5-yl}ethan-1-one] | 71 nM | 
N[C@@H](C(=O)N1Cc2cn(S(=O)(=O)c3ccc(OC(F)F)cc3)nc2C1)c1ccccc1F [Compound 56, (2R)-2-amino-1-{2-[4-(difluoromethoxy)benzenesulfonyl]-2H,4H,5H,6H-pyrrolo[3,4-c]pyrazol-5-yl}-2-(2-fluorophenyl)ethan-1-one] | 30 nM | 
N[C@@H](C(=O)N1Cc2cn(S(=O)(=O)c3ccc4c(c3)NCCO4)nc2C1)c1ccccc1F [Compound 57, (2R)-2-amino-1-[2-(3,4-dihydro-2H-1,4-benzoxazine-6-sulfonyl)-2H,4H,5H,6H-pyrrolo[3,4-c]pyrazol-5-yl]-2-(2-fluorophenyl)ethan-1-one] | 17 nM | 
N[C@@H](C(=O)N1Cc2cn(S(=O)(=O)c3ccc4c(c3)OCCO4)nc2C1)c1ccccc1F [Compound 58, (2R)-2-amino-1-[2-(2,3-dihydro-1,4-benzodioxine-6-sulfonyl)-2H,4H,5H,6H-pyrrolo[3,4-c]pyrazol-5-yl]-2-(2-fluorophenyl)ethan-1-one] | 25 nM | 
C[C@](N)(C(=O)N1Cc2cn(S(=O)(=O)c3ccc4ncsc4c3)nc2C1)c1ccccc1 [Compound 60, (2R)-2-amino-1-[2-(1,3-benzothiazole-6-sulfonyl)-2H,4H,5H,6H-pyrrolo[3,4-c]pyrazol-5-yl]-2-phenylpropan-1-one] | 77 nM | 
N[C@@H](C(=O)N1Cc2cn(S(=O)(=O)c3ccc4ncsc4c3)nc2C1)c1ccccc1Cl [Compound 63, (2R)-2-amino-1-[2-(1,3-benzothiazole-6-sulfonyl)-2H,4H,5H,6H-pyrrolo[3,4-c]pyrazol-5-yl]-2-(2-chlorophenyl)ethan-1-one] | 8.3 nM | 
O=C([C@H](O)c1ccccc1Cl)N1Cc2cn(S(=O)(=O)c3ccc4ncsc4c3)nc2C1 [Compound 65, (2R)-1-[2-(1,3-benzothiazole-6-sulfonyl)-2H,4H,5H,6H-pyrrolo [3,4-c]pyrazol-5-yl]-2-(2-chlorophenyl)-2-hydroxyethan-1-one] | 6.2 nM | 
